In patent publication US20060135587A1, “Method and compounds for promoting healing and reducing inflammation” (priority 2002, published 2006):

How the values were obtained:
wounds = test: Treatment of wounds in human patients; type: in vivo
Description: The effect of Compound 2 on the healing of different types of wounds was tested in human patients. A powder, solution or ointment of the substance containing the active agent in a proportion of 5% to 95% was applied to the wound. In all cases the wounds healed rapidly without infection or scarring.

[1] = system: neurogenic dystrophy of the myocardium; test: Myocardial infarction model (electrostimulation), enzymes in rabbit myocardium; type: in vivo, rabbits; details: 10 mg/kg; 48 hours after electrostimulation
Text: The effect of Compound 2 on myocardial tissue in an experimental model of myocardial infarction was examined. In this model system neurogenic dystrophy of the myocardium was induced in rats or rabbits by electrical stimulation of the reflexogenic zone of the aortic arch by implanted electrodes for a period of three hours. […] These changes are accompanied by changes in biochemical indicators such as creatine phosphate, cAMP, and calcium ion concentrations, and changes in the activity of redox enzymes such as succinate dehydrogenase, lactate dehydrogenase, and glucose-6-phosphate dehydrogenase. At a later stage organic lesions of the myocardium such as necrotic and fibrosclerotic foci can be observed.
The effect of Compound 2 given intraperitoneally or orally on these indicators was examined in rats and rabbits following electrostimulation as described above. The effects on levels of creatine phosphate in rat myocardial are shown in Table 19, and the effects on adenosine triphosphatase (ATPase), succinate dehydrogenase and glucose-6-phosphate dehydrogenase rabbit myocardium are shown in Table 20. The effects on cAMP and Ca^++ levels in rabbit myocardial tissue are shown in FIG. 5, and effects on creatine kinase in rabbit myocardium and blood and the levels of creatine phosphate in myocardium are shown in FIG. 6.

experimental granuloma = test: Cotton-wool granuloma (chronic proliferative inflammation) in rats; type: in vivo; details: 100 mg/kg orally, 12 days
Description: We investigated the ability of compound (2) to reduce the formation of granulation tissue in the inflammatory focus which develops at the site at which a non-sterile cotton-wool roll weighing 40 mg is implanted subcutaneously (Swingle and Shideman, 1972). Compound (2) was administered orally to male rats weighing 130-150 g at a dose of 100 mg/kg for 6 days before the cotton-wool roll was implanted, and then for 6 days at the same dose while the granuloma developed. Anti-inflammatory agents, such as ibuprofen and butadione, were used for comparison, using the same procedure. There were 10 rats in each group.
After 12 days the experiment was terminated, and the granulomas were excised, weighed, and the wet weight of the granulation tissue was measured. The dry mass of the granuloma was measured after drying for 24 hours at 70° C., and the exudative and proliferative stages of the granulomas were calculated. Statistical analysis was performed using the Student's parametric test.

myocardial infarction = test: Clinical comparison of Compound 2 and Riboxin in subacute myocardial infarction (Example 25); type: in vivo, human
Description: A total of 94 patients were examined; of these:
Conventional therapy as for example 24 was given to 30 patients. Each patient continued to receive the treatment which s/he had been given prior to commencement of the trial. Compound 2 was administered in addition to the previous treatment.
All the patients underwent standard laboratory tests prior to commencement of Compound 2 therapy, 14 days after the beginning of the course and upon completion of the course. The tests included clinical blood analysis; general urine analysis; evaluation of creatinine, bilirubin, transaminase activity, blood sugar, cholesterol and β-lipoproteins, malonic dialdehyde, Schiff bases, zinc, iron, copper, plasma potassium and sodium, prothrombin and fibrinogen; and an ECG examination in dynamics.
All the patients received conventional therapy, i.e. nitrates, anticoagulants and/or hypotensive agents as appropriate.
Combination therapy included Compound 2 (1st group—32 patients) or Riboxin (2nd group—18 patients). The agents were administered at a dose of 200 mg three times per day.

[2] = system: cryogenic ulcer of the gastric mucosa; test: Cryogenic gastric ulcer in rats; type: in vivo; details: for reduction of the size of lesions in the gastric mucosa: day 14
Description: The models used gastric ulcers induced by
c) Ulcer created by local wounding with a cryogenic probe using a method similar to that described above for mouth ulcers.
The compounds were administered intraperitoneally at a dose of 20 mg/kg; in the cryogenic ulcer model compound 2 was administered either intraperitoneally (10 mg/kg) or orally (20 mg/kg twice daily, ie. a total of 40 mg/kg/day) and was compared to orally-administered gastrocepin (1 mg/kg twice daily, ie. a total of 2 mg/kg/day).

[3] = Rat peripheral blood indicators during full-thickness skin wound treatment; type: in vivo, rats
Description: Peripheral blood indicators (leucocytes, leucocyte formula, erythrocyte sedimentation rate) of the rats from the test and control groups were measured before the animals were wounded, and then checked on the fifth, tenth and fifteenth days of the experiment. No reproducible changes compared to the blood characteristics of the intact animals prior to wounding were identified from the haematological indicators of rats treated with Compound 2.

rats = test: Acute toxicity (LD50) in rats; type: in vivo
Text: It is contemplated that in clinical use, treatment using oral tablets will take two to three weeks, with each patient receiving three tablets containing 0.6 g active compound per day.

[4] = 200 mg three times per day plus conventional therapy
[5] = patients with repeated myocardial infarct
[6] = healing effect over the course of 14 days, twice daily, oral

CC[n+]1cn(C)c(C(=O)NC)c1C(=O)NC.O=S(=O)([O-])c1ccccc1 [Compound 2, 1-methyl-3-ethyl-4,5-bis(N-methylcarbamoyl)-imidazolium benzenesulfonate]
wound outcome (wounds; Patient A, incisional wound 5 cm, 10% ointment in lanolin daily for 5 days, at 17 days): there was no scar, and the skin had fully recovered | wound outcome (wounds; Patient B, bed sores on the thigh, 0.5 g finely dispersed powder daily for 5 days, at 16 days): there was no scar, and the skin had fully recovered | wound outcome (wounds; Patient C, second degree thermal burn, 10% sterile aqueous solution, at 16 days): complete recovery of the skin, without scars | wound outcome (wounds; Patient D, abrasion of the left leg, 0.5 g powder mixed with equal amount of talc, at 12 days): the skin had healed completely | wound outcome (wounds; Patient E, erosion of the uterine cervix, 10% ointment on a tampon daily for two weeks, colposcopy at 18 days): the epithelium of the mucous membrane of the uterine cervix had fully recovered | ATPase [1]: 0.47 ± 0.13 µM/mg/min | Glucose-6-phosphate dehydrogenase (optical density units) [1]: 6.2 ± 0.7 optical density units | Succinate dehydrogenase (optical density units) [1]: 44.2 ± 6.7 optical density units | Granuloma weight (mg) Dry weight (experimental granuloma): 180.71 ± 14.16 mg | Granuloma weight (mg) Exudative stage (experimental granuloma): 775.58 mg | Granuloma weight (mg) Fresh weight (experimental granuloma): 956.29 ± 115.5 mg | Granuloma weight (mg) Proliferative stages (experimental granuloma): 140.71 mg | cholesterol levels (myocardial infarction; [4]): 96.5% | level of prothrombin (myocardial infarction; [4]): 91.3% | ejection fraction (myocardial infarction; 200 mg three times per day plus conventional therapy, 54.4±1.5% in the absence of the agent): 60.0±0.5% | malonic dialdehyde (myocardial infarction; 21st day, 1.3 before treatment, normal 1.21): 1 nmol/mL | superoxide dismutase levels (myocardial infarction; after therapy, 18-20 before treatment, norm 23): 25 conventional units | level of Schiff bases (myocardial infarction; after therapy, 75 before treatment, normal 60): 40 conventional units | allergic reactions or side effects (myocardial infarction; human, in vivo): did not develop any allergic reactions or side effects | cases in which cicatrisation took place one or two days earlier (myocardial infarction; [5]): 90% | time of cicatrisation on the average (myocardial infarction; [5]): 27 days | reduction of the size of lesions in the gastric mucosa ([2]; 10 mg/kg intraperitoneally): 53% | reduction of the size of lesions in the gastric mucosa ([2]; daily dose of 40 mg/kg orally): 51% | % reduction of degree of ulceration [2, 6]: 62% | Average number of lesions per animal [2, 6]: 9.4 ± 1.0 | ESR mm/h ([3]; day 5): 2.2 ± 0.6 mm/h | Leucocyte count (%) Band neutrophils ([3]; day 5): 1.4 ± 0.4% | Leucocyte count (%) Segmented neutrophils ([3]; day 5): 35.2 ± 4.4% | Leucocyte count (%) basophils ([3]; day 5): 0% | Leucocyte count (%) eosinophils ([3]; day 5): 2.6 ± 0.6% | Leucocyte count (%) lymphocytes ([3]; day 5): 52.6 ± 4.5% | Leucocyte count (%) monocytes ([3]; day 5): 8.2 ± 0.8% | Leucocytes 10^9/l ([3]; day 5): 6.6 ± 0.9 10^9/l | ESR mm/h ([3]; day 10): 1.0 ± 0 mm/h | Leucocyte count (%) Band neutrophils ([3]; day 10): 1.2 ± 0.2% | Leucocyte count (%) Segmented neutrophils ([3]; day 10): 29.6 ± 2.2% | Leucocyte count (%) basophils ([3]; day 10): 0.6 ± 0.2% | Leucocyte count (%) eosinophils ([3]; day 10): 2.4 ± 0.5% | Leucocyte count (%) lymphocytes ([3]; day 10): 63.8 ± 1.9% | Leucocyte count (%) monocytes ([3]; day 10): 2.4 ± 0.5% | Leucocytes 10^9/l ([3]; day 10): 7.9 ± 0.6 10^9/l | European Search Report mm/h ([3]; day 15): 1.4 ± 0.2 mm/h | Leucocyte count (%) Band neutrophils ([3]; day 15): 1.2 ± 0.2% | Leucocyte count (%) Segmented neutrophils ([3]; day 15): 21.0 ± 3.1% | Leucocyte count (%) basophils ([3]; day 15): 0.4 ± 0.2% | Leucocyte count (%) eosinophils ([3]; day 15): 2.8 ± 0.2% | Leucocyte count (%) lymphocytes ([3]; day 15): 70.6 ± 3.4% | Leucocyte count (%) monocytes ([3]; day 15): 4.0 ± 0.7% | Leucocytes 10^9/1 ([3]; day 15): 11.1 ± 1.6 10^9/1 | LD50 (rats; given intraperitoneally): 1210 mg/kg | LD50 (rats; oral administration): more than 20000 mg/kg
